The values below come from patent publication US11254663B2 (BRISTOL-MYERS SQUIBB COMPANY, priority 2019, dated 2022).

Structures are written as SMILES.

The target of the first assay is FXR (Homo sapiens (Human), UniProt Q96RI1). The assay is described as follows: transient human FXR/Gal4-luciferase reporter assay. The class given is cell-based.
Chain of FXR (Q96RI1 262-486): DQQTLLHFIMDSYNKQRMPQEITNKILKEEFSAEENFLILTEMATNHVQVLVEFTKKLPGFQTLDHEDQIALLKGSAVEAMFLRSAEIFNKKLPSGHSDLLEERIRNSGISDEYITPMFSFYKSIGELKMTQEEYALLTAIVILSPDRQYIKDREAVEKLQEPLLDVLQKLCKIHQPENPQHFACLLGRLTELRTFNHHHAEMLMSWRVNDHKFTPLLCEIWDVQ
Conditions: not given
In outline: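 Compound exposure ran overnight at 37 °C and activity was measured as luminescence with Steady-Glo reagent. The cells were a HEK293 line stably expressing firefly luciferase under five Gal4 response elements. They were transiently transfected, one night beforehand, with a plasmid encoding Gal4 DNA-binding domain fused to the human FXR ligand-binding domain.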
On the technique in general: Reporter assays use an easily measured gene product as a stand-in for the process of interest.
In the case of `O=C(N(CC12CCC(c3noc(C(F)F)n3)(CC1)CC2)c1cccc(-c2ccc(OC(F)F)cc2)c1)C12CC(F)(C1)C2` [Example 465, N-(4′-(difluoromethoxy)-[1,1′-biphenyl]-3-yl)-N-((4-(5-(difluoromethyl)-1,2,4-oxadiazol-3-yl)bicyclo[2.2.2]octan-1-yl)methyl)-3-fluorobicyclo[1.1.1]pentane-1-carboxamide], the EC50 (in general, the concentration that produces a half-maximal response) stood at 0.18 µM.

Turning to `CC(C)(C)c1nc(C23CCC(CN(C(=O)C45CC(F)(C4)C5)c4cc(-c5ccc6[nH]c(=O)oc6c5)ccn4)(CC2)CC3)no1` [Example 540, N-((4-(5-(tert-butyl)-1,2,4-oxadiazol-3-yl)bicyclo[2.2.2]octan-1-yl)methyl)-3-fluoro-N-(4-(2-oxo-2,3-dihydrobenzo[d]oxazol-6-yl)pyridin-2-yl)bicyclo[1.1.1]pentane-1-carboxamide], the EC50 worked out at 0.071 µM.

The assay is the same for the next values; noted with them: Gal4-hFXR fusion construct, HEK293 reporter cells; response relative to 8 μM GW-4064.
For the compound `O=C(N(CC12CCC(c3nc(C4CC4)no3)(CC1)CC2)c1cccc(-c2ccn3ncnc3c2)c1)C12CC(F)(C1)C2` [Example 298, N-(3-([1,2,4]triazolo[1,5-a]pyridin-7-yl)phenyl)-N-((4-(3-cyclopropyl-1,2,4-oxadiazol-5-yl)bicyclo[2.2.2]octan-1-yl)methyl)-3-fluorobicyclo[1.1.1]pentane-1-carboxamide], the EC50 amounted to 1.69 µM.

Compound `CCOc1ccc(-c2cccc(N(CC34CCC(c5nc(C(C)(C)C)no5)(CC3)CC4)C(=O)C34CC(F)(C3)C4)c2)cn1` [Example 360, N-((4-(3-(tert-butyl)-1,2,4-oxadiazol-5-yl)bicyclo[2.2.2]octan-1-yl)methyl)-N-(3-(6-ethoxypyridin-3-yl)phenyl)-3-fluorobicyclo[1.1.1]pentane-1-carboxamide] had an EC50 of 0.147 µM.

`CC1(C(=O)N(CC23CCC(c4noc(C(C)(C)C)n4)(CC2)CC3)c2cccc(-c3ccc(OC(F)F)cc3)c2)COC1` [Example 515, N-((4-(5-(tert-butyl)-1,2,4-oxadiazol-3-yl)bicyclo[2.2.2]octan-1-yl)methyl)-N-(4′-(difluoromethoxy)-[1,1′-biphenyl]-3-yl)-3-methyloxetane-3-carboxamide]: the EC50 was 0.357 µM.

As for `Cc1nc2cc(-c3cccc(N(CC45CCC(c6nc(C7CC7)no6)(CC4)CC5)C(=O)C45CC(F)(C4)C5)c3)ccc2s1` [Example 303, N-((4-(3-cyclopropyl-1,2,4-oxadiazol-5-yl)bicyclo[2.2.2]octan-1-yl)methyl)-3-fluoro-N-(3-(2-methylbenzo[d]thiazol-5-yl)phenyl)bicyclo[1.1.1]pentane-1-carboxamide], the EC50 was 0.349 µM.

For the compound `CC(C)(O)c1cnc(-c2ccnc(N(CC34CCC(c5ccc(C(C)(F)F)cn5)(CC3)CC4)C(=O)OC(C)(C)C(F)(F)F)c2)nc1` [Example 608, 1,1,1-trifluoro-2-methylpropan-2-yl ((4-(5-(1,1-difluoroethyl)pyridin-2-yl)bicyclo[2.2.2]octan-1-yl)methyl)(4-(5-(2-hydroxypropan-2-yl)pyrimidin-2-yl)pyridin-2-yl) carbamate], the EC50 worked out at 0.301 µM.

On to `CCOc1ncc(-c2cccc(N(CC34CCC(c5noc(C6(C)COC6)n5)(CC3)CC4)C(=O)[C@H]3C[C@@H](OC)C3)c2)cn1` [Example 518, (cis)-N-(3-(2-ethoxypyrimidin-5-yl)phenyl)-3-methoxy-N-((4-(5-(3-methyloxetan-3-yl)-1,2,4-oxadiazol-3-yl)bicyclo[2.2.2]octan-1-yl)methyl)cyclobutane-1-carboxamide], for which the midpoint of the response, the EC50, lay at 1.29 µM.

In turn, `COc1cc(-c2cccc(N(CC34CCC(c5nnc(C6CC6)o5)(CC3)CC4)C(=O)C34CC(F)(C3)C4)c2)ccn1` [Example 342, N-((4-(5-cyclopropyl-1,3,4-oxadiazol-2-yl)bicyclo[2.2.2]octan-1-yl)methyl)-3-fluoro-N-(3-(2-methoxypyridin-4-yl)phenyl)bicyclo[1.1.1]pentane-1-carboxamide] yielded an EC50 of 0.12 µM.

The compound `CC(C)S(=O)(=O)Nc1ccc(-c2cccc(N(CC34CCC(c5nc(C6CC6)no5)(CC3)CC4)C(=O)C34CC(F)(C3)C4)c2)cc1` [Example 268, N-((4-(3-cyclopropyl-1,2,4-oxadiazol-5-yl)bicyclo[2.2.2]octan-1-yl)methyl)-3-fluoro-N-(4′-((1-methylethyl)sulfonamido)-[1,1′-biphenyl]-3-yl)bicyclo[1.1.1]pentane-1-carboxamide] displayed an EC50 of 0.166 µM.

`CCOc1ccc(-c2cccc(N(CC34CCC(c5noc(C(C)(C)C)n5)(CC3)CC4)C(=O)C34CC(F)(C3)C4)c2)cc1` [Example 439, N-((4-(5-(tert-butyl)-1,2,4-oxadiazol-3-yl)bicyclo[2.2.2]octan-1-yl)methyl)-N-(4′-ethoxy-[1,1′-biphenyl]-3-yl)-3-fluorobicyclo[1.1.1]pentane-1-carboxamide]: the EC50 was 0.07 µM.

In turn, `COc1ccc(C23CCC(CN(C(=O)C45CC(F)(C4)C5)c4cccc(-c5ccc6nc(C)sc6c5)c4)(CC2)CO3)cc1` [Example 556, 3-Fluoro-N-((1-(4-methoxyphenyl)-2-oxabicyclo[2.2.2]octan-4-yl)methyl)-N-(3-(2-methylbenzo[d]thiazol-6-yl)phenyl)bicyclo[1.1.1]pentane-1-carboxamide] registered an EC50 of 0.816 µM.

Compound `CCc1ccc(-c2cccc(N(CC34CCC(c5noc(C(C)(C)C)n5)(CC3)CC4)C(=O)C34CC(F)(C3)C4)c2)cc1` [Example 456, N-((4-(5-(tert-butyl)-1,2,4-oxadiazol-3-yl)bicyclo[2.2.2]octan-1-yl)methyl)-N-(4′-ethyl-[1,1′-biphenyl]-3-yl)-3-fluorobicyclo[1.1.1]pentane-1-carboxamide] displayed an EC50 of 0.106 µM.

In turn, `O=C(N(CC12CCC(c3nc(C4CC4)no3)(CC1)CC2)c1cccc(-c2ccn3ccnc3c2)c1)C12CC(F)(C1)C2` [Example 288, N-((4-(3-cyclopropyl-1,2,4-oxadiazol-5-yl)bicyclo[2.2.2]octan-1-yl)methyl)-3-fluoro-N-(3-(imidazo[1,2-a]pyridin-7-yl)phenyl)bicyclo[1.1.1]pentane-1-carboxamide] had an EC50 of 0.539 µM.

`COc1cc(-c2cccc(N(CC34CCC(c5nnc(C)o5)(CC3)CC4)C(=O)C34CC(F)(C3)C4)c2)ccn1` [Example 230, 3-Fluoro-N-(3-(2-methoxypyridin-4-yl)phenyl)-N-((4-(5-methyl-1,3,4-oxadiazol-2-yl)bicyclo[2.2.2]octan-1-yl)methyl)bicyclo[1.1.1]pentane-1-carboxamide] showed an EC50 of 0.988 µM.

Consider `Cc1cnc(-c2cccc(N(CC34CCC(c5noc(C(C)(C)C)n5)(CC3)CC4)C(=O)C34CC(F)(C3)C4)c2)nc1` [Example 454, N-((4-(5-(tert-butyl)-1,2,4-oxadiazol-3-yl)bicyclo[2.2.2]octan-1-yl)methyl)-3-fluoro-N-(3-(5-methylpyrimidin-2-yl)phenyl)bicyclo[1.1.1]pentane-1-carboxamide], for which the EC50 was 0.031 µM.

The compound `CC(C)Oc1ccc(-c2cccc(N(CC34CCC(c5cc(C(C)(F)F)nn5C)(CC3)CC4)C(=O)NC(C)(C)C)c2)cc1` [Example 659, 3-(tert-butyl)-1-((4-(3-(1,1-difluoroethyl)-1-methyl-1H-pyrazol-5-yl)bicyclo[2.2.2]octan-1-yl)methyl)-1-(4′-isopropoxy-[1,1′-biphenyl]-3-yl)urea] had an EC50 of 0.053 µM.
